Experimental data: patent US8637481B2, “Sensitizing agents for cancer therapy, methods of use and methods for the identification thereof” (University Health Network, priority 2009, dated 2014)

Tests used:
[1] = tested on: FaDu cells; assay: Apoptotic fraction by flow cytometry post-IR; assay type: cell-based, human; settings: deferoxamine 5 μM pre-treatment 24 h before IR 4 Gy, 72 h post-IR
Procedure: Flow cytometric analyses were performed on a FACSCalibur Flow Cytometer (BD Biosciences, San Jose, Calif.), equipped with FlowJo software (Tree Star, Ashland, Oreg.). Cell cycle distributions, caspase activation, and mitochondrial membrane potentials were measured as previously described. Intracellular ROS levels were quantified using the non-specific 5-(and 6-)chloromethyl-2′,7′-dichlorodihydrofluorescein diacetate (CM-H2DCFDA) dye, and the superoxide-selective dihydroethidium (DE) dye as instructed by the manufacturer (Invitrogen).
Transfected cells were immediately exposed to a continuous flow of humidified 0.2% O2 with 5% CO2 and balanced N2 (Praxair, Ontario, Canada) in an In Vivo2 400 Hypoxia Chamber (Ruskinn Technology, Pencoed, UK). An OxyLite 4000 oxygen-sensing probe (Oxford Optronix, Oxford, UK) was used to verify target O2 levels.

[2] = tested on: FaDu cells; assay: Cell viability assay (MTS); assay type: cell-based, human; settings: IR 4 Gy, 96 h post-IR, siRNA 48 h transfection, ALA 250-1000 μM 4 h
Excerpt: The CeliTiter 96 AQueous One Solution Cell Proliferation Assay (3-(4,5-dimethylthiazol-2-yl)-5-(3-carboxymethoxyphenyl)-2-(4-sulfophenyl)-2H-tetrazolium, inner salt MTS (Promega, Madison, Wis.) was used to detect cell viability according to the manufacturer's specifications.

## deferoxamine mesylate salt
[1]
  siUROD-plus-IR-induced apoptosis: significant suppression

## Cl.NCC(=O)CCC(=O)O [ALA, δ-aminolevulinic acid hydrochloride]
[2]
  cytotoxicity plus IR (cell viability, MTS): negligible effects
